Columns and labels:
T24 bladder cancer cells = assay: antiproliferative activity against T24 (Grade 3, non-metastatic) bladder cancer cells in vitro; type: cell-based; conditions: for Percentage of inhibition related to control (%) / inhibition at 25 µg/mL / inhibition at 50 µg/mL / inhibition at 100 µM: bladder cancer cells in vitro; for inhibition at 25 µg/mL / inhibition at 50 µg/mL / inhibition at 100 µM: read-out: Percentage of inhibition related to control (%)
Experimental: (§1) Compounds of the present invention were tested for antiproliferative activity against RT24 (Grade I) and T24 (Grade3, non-metastatic) bladder cancer cells in vitro, in accordance with well known standard technique as diagramed in FIG. 5.

[1] = test system: RT24 (Grade I) bladder cancer cells; assay: antiproliferative activity against RT24 (Grade I) bladder cancer cells in vitro; type: cell-based; conditions: FIGS. 1-4
Experimental: FIG. 5 is a schematic diagram of the in vitro test for antiproliferative activity referred to in Example 1 below.
as §1

bladder cancer = conditions: cited from earlier work
[2] = test system: advanced transitional cell carcinoma of the urothelium; conditions: Phase II, with prophylactic G-CSF, cited from earlier work
[3] = test system: human bladder cancer cell lines; conditions: cited from earlier work

11-Methysticin
Percentage of inhibition related to control (%) (T24 bladder cancer cells; 25 μg/ml): 52.1%

COc1cc(O)cc(O)c1C(=O)CC(O)c1ccccc1 (stereo not shown) [1-(2,4-Dihydorxy-6-methoxy-phenyl-3-hydorxy-3-phenyl-propan-1-one]
Percentage of inhibition related to control (%) (T24 bladder cancer cells; 25 μg/ml): 42.3%

COc1ccc(/C=C/C(=O)c2c(OC)cc(O)cc2OC)cc1 [4′-hydroxy-4,2′,6′-trimethoxychalcone]
inhibition at 25 µg/mL (T24 bladder cancer cells; 25 μg/ml): 73.7%

COc1cc(/C=C/c2ccc(OC)c(OC)c2)oc(=O)c1 [11-Methoxyangonin]
Percentage of inhibition related to control (%) (T24 bladder cancer cells; 25 μg/ml): 26.3%

COc1ccc2cc3[n+](cc2c1OC)CCc1cc2c(cc1-3)OCO2 [Berberine]
inhibition at 50 µg/mL (T24 bladder cancer cells; 50 μg/ml): 17.9%

COc1ccc(-c2coc3cc(O)cc(O)c3c2=O)cc1 [Biochanin A]
Percentage of inhibition related to control (%) (T24 bladder cancer cells; 25 μg/ml): 48.7%

CC(=O)OC[C@@]1(O)C[C@@]23CC[C@@H]4c5ccoc5CC[C@@]4(C)[C@@H]2CC[C@@H]1C3 [Cafestol Acetate]
inhibition at 50 µg/mL (T24 bladder cancer cells; 50 μg/ml): 57.6%

O=c1oc2cc(O)ccc2c2oc3cc(O)ccc3c12 [Coumestrol]
inhibition at 50 µg/mL (T24 bladder cancer cells; 50 μg/ml): 30%

COc1cc(/C=C/C(=O)CC(=O)/C=C/c2ccc(O)c(OC)c2)ccc1O [Curcumin]
inhibition at 50 µg/mL (T24 bladder cancer cells; 50 μg/ml): 69.7%

O=c1c(-c2ccc(O)cc2)coc2cc(O)ccc12 [Daidzein]
inhibition at 50 µg/mL (T24 bladder cancer cells; 50 μg/ml): 39.3%

O=C(O[C@@H]1Cc2c(O)cc(O)cc2O[C@@H]1c1cc(O)c(O)c(O)c1)c1cc(O)c(O)c(O)c1 [EGCG]
Percentage of inhibition related to control (%) (T24 bladder cancer cells; 25 μg/ml): 34%

O=c1oc2c(O)c(O)cc3c(=O)oc4c(O)c(O)cc1c4c23 [Ellagic acid]
inhibition at 100 µM (T24 bladder cancer cells): 66%

COc1ccc(/C=C/C(=O)c2c(O)cc(OC)cc2OC)cc1 [Flavokawain A, 2′-hydroxy-4,4′,6′-trimethoxychalcone]
inhibitory effects on proliferation (T24 bladder cancer cells; T24 (Grade 3, non-metastatic) cells in vitro, FIGS. 1-4): significant inhibitory effects
inhibitory effects on proliferation [1]: significant inhibitory effects

Nc1ccn([C@@H]2O[C@H](CO)[C@@H](O)C2(F)F)c(=O)n1 [Gemcitabine]
median survival (bladder cancer; clinical trials): less than 12 months
response rate (bladder cancer; clinical trials): less than 30%
toxicity (bladder cancer; phase II trials): in general mild and reversible

O=c1c(-c2ccc(O)cc2)coc2cc(O)cc(O)c12 [Genistein]
inhibition at 25 µg/mL (T24 bladder cancer cells; 25 μg/ml): 48.7%

O=c1c(O)c(-c2ccc(O)cc2)oc2cc(O)cc(O)c12 [Kaempferol]
inhibition at 50 µg/mL (T24 bladder cancer cells; 50 μg/ml): 60%

C[C@@]12C=Cc3occc3[C@H]1CC[C@@]13C[C@@H](CC[C@H]12)[C@@](O)(CO)C3 [Kahweol]
Percentage of inhibition related to control (%) (T24 bladder cancer cells; 50 μg/ml): 61.2%

COC1=CC(=O)O[C@@H](/C=C/c2ccccc2)C1 [Kawain]
inhibition at 25 µg/mL (T24 bladder cancer cells; 25 μg/ml): 33.6%

O=c1c(O)c(-c2ccc(O)cc2O)oc2cc(O)cc(O)c12 [Morin]
inhibition at 50 µg/mL (T24 bladder cancer cells; 50 μg/ml): 34%

O=C1C[C@@H](c2ccc(O)cc2)Oc2cc(O)cc(O)c21 [Naringenin]
inhibition at 50 µg/mL (T24 bladder cancer cells; 50 μg/ml): 20%

C[C@@H]1O[C@@H](O[C@H]2[C@H](Oc3cc(O)c4c(c3)O[C@H](c3ccc(O)cc3)CC4=O)O[C@H](CO)[C@@H](O)[C@@H]2O)[C@H](O)[C@H](O)[C@H]1O [Naringin]
inhibition at 50 µg/mL (T24 bladder cancer cells; 50 μg/ml): 29%

Oc1cc(O)c2c(c1)O[C@H](c1ccc(O)c(O)c1)[C@H](O)[C@H]2c1c(O)cc(O)c2c1O[C@H](c1ccc(O)c(O)c1)[C@@H](O)C2 [Procyanidin B1]
Percentage of inhibition related to control (%) (T24 bladder cancer cells; 25 μg/ml): 44.2%

O=c1c(O)c(-c2ccc(O)c(O)c2)oc2cc(O)cc(O)c12 [Quercetin]
inhibition at 50 µg/mL (T24 bladder cancer cells; 50 μg/ml): 53.3%

Oc1ccc(C=Cc2cc(O)cc(O)c2)cc1 [Resveratrol]
inhibition at 50 µg/mL (T24 bladder cancer cells; 50 μg/ml): 70.6%

O=c1c2ccccc2nc2n1CCc1c-2[nH]c2ccccc12 [Rutaecurpine]
Percentage of inhibition related to control (%) (T24 bladder cancer cells; 50 μg/ml): 76%

C[C@@H]1O[C@@H](OC[C@H]2O[C@@H](Oc3c(-c4ccc(O)c(O)c4)oc4cc(O)cc(O)c4c3=O)[C@H](O)[C@@H](O)[C@@H]2O)[C@H](O)[C@H](O)[C@H]1O [Rutin]
inhibition at 100 µM (T24 bladder cancer cells): 47.7%

COc1cc(C2Oc3cc([C@H]4Oc5cc(O)cc(O)c5C(=O)[C@@H]4O)ccc3OC2CO)ccc1O (stereo partly shown) [Silibinin]
inhibition at 100 µM (T24 bladder cancer cells): 40%

O=C1c2c(O)cc(O)cc2O[C@H](c2ccc(O)c(O)c2)[C@H]1O [Taxifolin]
inhibition at 50 µg/mL (T24 bladder cancer cells; 50 μg/ml): 36.7%

CC(=O)O[C@H]1C(=O)[C@@]2(C)[C@H]([C@H](OC(=O)c3ccccc3)[C@]3(O)C[C@H](OC(=O)[C@H](O)[C@@H](NC(=O)c4ccccc4)c4ccccc4)C(C)=C1C3(C)C)[C@]1(OC(C)=O)CO[C@@H]1C[C@@H]2O [paclitaxel]
objective response (response rate) ([2]; previously untreated patients): 42%
toxicities [2]: granulocytopenia, anemia, mucositis, and neuropathy
activity against human bladder cancer cell lines [3]: significant activity
